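Tested at 5 concentrations; 48 h exposure; 96-well plates; endpoints linearly interpolated, else capped at highest concentration. The concentration for 50% growth inhibition is given as GI50.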 Calls of active or inactive are those of the source. Cut-off read from the data, not from the text of the source: active = GI50 up to about 1.1 µM and inactive = higher.
Tests used:
Assay in all cases: NCI-60 cell line screen, 48 h
ACHN = test system: ACHN
BT-549 = test system: BT-549
EKVX = test system: EKVX
HCT-15 = test system: HCT-15
HOP-62 = test system: HOP-62
LOX IMVI = test system: LOX IMVI
M14 = test system: M14
MDA-MB-231 = test system: MDA-MB-231
NCI-H460 = test system: NCI-H460
OVCAR-5 = test system: OVCAR-5
OVCAR-8 = test system: OVCAR-8
RXF 393 = test system: RXF 393
SF-268 = test system: SF-268
SF-295 = test system: SF-295
SK-MEL-28 = test system: SK-MEL-28
SK-MEL-2 = test system: SK-MEL-2
SK-OV-3 = test system: SK-OV-3
SR = test system: SR
SW-620 = test system: SW-620
RPMI-8226 = test system: RPMI-8226

Structure (SMILES) | GI50 (ACHN) | GI50 (BT-549) | GI50 (EKVX) | GI50 (HCT-15) [µM] | GI50 (HOP-62) | GI50 (LOX IMVI) | GI50 (M14) | GI50 (MDA-MB-231) | GI50 (NCI-H460) | GI50 (OVCAR-5) | GI50 (OVCAR-8) | GI50 (RXF 393) | GI50 (SF-268) | GI50 (SF-295) | GI50 (SK-MEL-28) | GI50 (SK-MEL-2) | GI50 (SK-OV-3) | GI50 (SR) | GI50 (SW-620) | GI50 (RPMI-8226)
COc1ccc(C(SCCO)(c2ccccc2)c2ccccc2)cc1 | 14.1 µM (inactive) | 16.6 µM (inactive) | 12.9 µM (inactive) | 11.9 | 15.4 µM (inactive) | 18.1 µM (inactive) | 7.08 µM (inactive) | 14.3 µM (inactive) | 13.3 µM (inactive) | 16.9 µM (inactive) | 17.9 µM (inactive) | 16.1 µM (inactive) | 14.6 µM (inactive) | 13.4 µM (inactive) | 17.1 µM (inactive) | 13.1 µM (inactive) | 16.5 µM (inactive) | 21.6 µM (inactive) | 20.6 µM (inactive) | –
Cc1ccc(Cc2n[nH]c(=O)n2N2C(=O)c3ccccc3C2=O)cc1 | > 100 µM (inactive) | > 100 µM (inactive) | > 100 µM (inactive) | > 100 | > 100 µM (inactive) | > 100 µM (inactive) | > 100 µM (inactive) | > 100 µM (inactive) | > 100 µM (inactive) | > 100 µM (inactive) | > 100 µM (inactive) | – | – | > 100 µM (inactive) | > 100 µM (inactive) | > 100 µM (inactive) | – | > 100 µM (inactive) | > 100 µM (inactive) | –
CCN(CC)c1nc(NC2CCCCC2)c2nc(N(CC)CC)nc(NC3CCCCC3)c2n1 | > 100 µM (inactive) | > 100 µM (inactive) | > 100 µM (inactive) | > 100 | 73.1 µM (inactive) | – | > 100 µM (inactive) | 88.1 µM (inactive) | > 100 µM (inactive) | > 100 µM (inactive) | > 100 µM (inactive) | 33.3 µM (inactive) | > 100 µM (inactive) | > 100 µM (inactive) | > 100 µM (inactive) | – | > 100 µM (inactive) | > 100 µM (inactive) | > 100 µM (inactive) | –
CN(C)CCCNC(=O)N/N=C/c1ccc(O)cc1 | > 100 µM (inactive) | > 100 µM (inactive) | – | > 100 | > 100 µM (inactive) | – | > 100 µM (inactive) | > 100 µM (inactive) | > 100 µM (inactive) | > 100 µM (inactive) | > 100 µM (inactive) | – | > 100 µM (inactive) | > 100 µM (inactive) | > 100 µM (inactive) | > 100 µM (inactive) | > 100 µM (inactive) | > 100 µM (inactive) | > 100 µM (inactive) | –
CC(/C=C/c1ccccc1)=N\NC(=S)N/N=C(C)/C=C/c1ccccc1 | 23.6 µM (inactive) | 24.5 µM (inactive) | 47.6 µM (inactive) | 12.7 | 28.1 µM (inactive) | 11 µM (inactive) | 17.2 µM (inactive) | 12.8 µM (inactive) | 5.11 µM (inactive) | 28.5 µM (inactive) | 17.5 µM (inactive) | 13.7 µM (inactive) | 4.22 µM (inactive) | 20.7 µM (inactive) | 15.4 µM (inactive) | 10.9 µM (inactive) | 13.3 µM (inactive) | 5.93 µM (inactive) | 15.8 µM (inactive) | –
CC1(C(O)c2ccccc2)CN(C(C)(C)C)C(=O)/C1=C\Sc1ccccc1 (stereo not drawn) | 64.1 µM (inactive) | 59.6 µM (inactive) | 83 µM (inactive) | 29.2 | 99.1 µM (inactive) | 14.1 µM (inactive) | 51.3 µM (inactive) | 53 µM (inactive) | – | > 100 µM (inactive) | 28.2 µM (inactive) | – | 1.76 µM (inactive) | 28.3 µM (inactive) | > 100 µM (inactive) | 21.3 µM (inactive) | 44.9 µM (inactive) | 30.3 µM (inactive) | 46.8 µM (inactive) | 9.95 µM (inactive)
COc1ccc(CC(O)CN2CCOCC2)cc1 (stereo not drawn) | > 100 µM (inactive) | > 100 µM (inactive) | > 100 µM (inactive) | > 100 | > 100 µM (inactive) | > 100 µM (inactive) | > 100 µM (inactive) | > 100 µM (inactive) | > 100 µM (inactive) | > 100 µM (inactive) | > 100 µM (inactive) | > 100 µM (inactive) | > 100 µM (inactive) | > 100 µM (inactive) | > 100 µM (inactive) | > 100 µM (inactive) | – | > 100 µM (inactive) | > 100 µM (inactive) | –
Cc1c[nH]c(C(=O)O)c1-c1ccc2c(-c3ccccc3)nc3ccccc3n12 | 52.4 µM (inactive) | 30.6 µM (inactive) | 20.5 µM (inactive) | 30 | 15.7 µM (inactive) | 27.1 µM (inactive) | 31.7 µM (inactive) | 32.9 µM (inactive) | 22.9 µM (inactive) | 36 µM (inactive) | 22.6 µM (inactive) | 18.2 µM (inactive) | 28.2 µM (inactive) | 22.7 µM (inactive) | 31.4 µM (inactive) | 20.7 µM (inactive) | 32.1 µM (inactive) | 33 µM (inactive) | 41.2 µM (inactive) | –
c1cc(-c2ccc(-c3ccc(C4=NCCCN4)cc3)o2)ccc1C1=NCCCN1 | > 100 µM (inactive) | 35.4 µM (inactive) | 40.2 µM (inactive) | 90.8 | 47.8 µM (inactive) | 37.4 µM (inactive) | 53.5 µM (inactive) | > 100 µM (inactive) | 14.6 µM (inactive) | > 100 µM (inactive) | 59.3 µM (inactive) | > 100 µM (inactive) | > 100 µM (inactive) | 24.2 µM (inactive) | 25.1 µM (inactive) | > 100 µM (inactive) | > 100 µM (inactive) | > 100 µM (inactive) | 82.2 µM (inactive) | –
CC(C)[Si](OC1=CCC[C@H]2NC(=O)[C@@H](Cc3ccccc3)[C@@]12C)(C(C)C)C(C)C | 1.89 µM (inactive) | 10.8 µM (inactive) | 3.74 µM (inactive) | 4.09 | 11.9 µM (inactive) | 3.03 µM (inactive) | 11.2 µM (inactive) | 12.6 µM (inactive) | 3.52 µM (inactive) | 9.44 µM (inactive) | 11.4 µM (inactive) | 4.16 µM (inactive) | 12.1 µM (inactive) | 4.85 µM (inactive) | 4.11 µM (inactive) | 14.2 µM (inactive) | 5.93 µM (inactive) | 2.62 µM (inactive) | 2.72 µM (inactive) | –
Clc1ccc(/N=C2\c3ccccc3CN2c2ccc(Cl)cc2)cc1 | 0.668 µM (active) | > 100 µM (inactive) | > 100 µM (inactive) | > 100 | 63.1 µM (inactive) | > 100 µM (inactive) | 31.7 µM (inactive) | 53.3 µM (inactive) | 62.8 µM (inactive) | > 100 µM (inactive) | > 100 µM (inactive) | 29.8 µM (inactive) | 47.1 µM (inactive) | 10.4 µM (inactive) | 64 µM (inactive) | 4.68 µM (inactive) | > 100 µM (inactive) | – | > 100 µM (inactive) | 7.69 µM (inactive)
O=C(N/N=C(COc1cccc(Cl)c1)\N=C\c1cccnc1)c1ccncc1 | 91.2 µM (inactive) | > 100 µM (inactive) | > 100 µM (inactive) | > 100 | > 100 µM (inactive) | > 100 µM (inactive) | > 100 µM (inactive) | > 100 µM (inactive) | > 100 µM (inactive) | > 100 µM (inactive) | 89.3 µM (inactive) | 35.3 µM (inactive) | > 100 µM (inactive) | > 100 µM (inactive) | > 100 µM (inactive) | > 100 µM (inactive) | > 100 µM (inactive) | – | > 100 µM (inactive) | > 100 µM (inactive)
Cc1ccc(Cc2nnc(S)[nH]2)cc1 | 63.7 µM (inactive) | > 100 µM (inactive) | > 100 µM (inactive) | > 100 | 61.9 µM (inactive) | 74 µM (inactive) | > 100 µM (inactive) | > 100 µM (inactive) | 78.2 µM (inactive) | > 100 µM (inactive) | 79.4 µM (inactive) | – | – | 52.2 µM (inactive) | > 100 µM (inactive) | > 100 µM (inactive) | > 100 µM (inactive) | > 100 µM (inactive) | > 100 µM (inactive) | –
O=C(O)CCC(NC(=O)/C(=C/c1ccccc1)NC(=O)c1ccccc1)C(=O)O (stereo not drawn) | > 100 µM (inactive) | > 100 µM (inactive) | > 100 µM (inactive) | > 100 | > 100 µM (inactive) | > 100 µM (inactive) | > 100 µM (inactive) | > 100 µM (inactive) | > 100 µM (inactive) | > 100 µM (inactive) | > 100 µM (inactive) | > 100 µM (inactive) | > 100 µM (inactive) | > 100 µM (inactive) | > 100 µM (inactive) | > 100 µM (inactive) | > 100 µM (inactive) | – | > 100 µM (inactive) | > 100 µM (inactive)
O=C(N/N=C(COc1ccc(Cl)cc1)\N=C\c1ccncc1)c1ccncc1 | > 100 µM (inactive) | > 100 µM (inactive) | > 100 µM (inactive) | > 100 | > 100 µM (inactive) | > 100 µM (inactive) | > 100 µM (inactive) | > 100 µM (inactive) | > 100 µM (inactive) | > 100 µM (inactive) | > 100 µM (inactive) | 57.1 µM (inactive) | > 100 µM (inactive) | > 100 µM (inactive) | > 100 µM (inactive) | > 100 µM (inactive) | > 100 µM (inactive) | – | > 100 µM (inactive) | 83.8 µM (inactive)

— ChEMBL document CHEMBL1201862, “PubChem BioAssay data set” (2004)
